Earlier results, collected in patent US20230051463A1, “Methotrexate Dosage Form” (ROS Therapeutics ApS, priority 2020, published 2023).
Read-outs that look alike come from different tables or passages of the source.

Tests used:
[1] = oral

Structure (SMILES) | solubility in water | AUC(0-24) Geometric LS Mean ([1]; Methotrexate 10 mg) | Cmax Geometric LS Mean ([1]; Methotrexate 10 mg) | AUC(0-24) Geometric LS Mean ([1]; Methotrexate 15 mg) | Cmax Geometric LS Mean ([1]; Methotrexate 15 mg) | AUC(0-24) Geometric LS Mean ([1]; Methotrexate 20 mg) | Cmax Geometric LS Mean ([1]; Methotrexate 20 mg) | AUC(0-24) Geometric LS Mean ([1]; Methotrexate 25 mg) | Cmax Geometric LS Mean ([1]; Methotrexate 25 mg)
CN(Cc1cnc2nc(N)nc(N)c2n1)c1ccc(C(=O)N[C@@H](CCC(=O)O)C(=O)O)cc1 [Methotrexate] | practically insoluble |  |  |  |  |  |  |  | 
CN(Cc1cnc2nc(N)nc(N)c2n1)c1ccc(C(=O)N[C@@H](CCC(=O)[O-])C(=O)[O-])cc1.[Na+].[Na+] [Methotrexate disodium] | freely soluble |  |  |  |  |  |  |  | 
CN(Cc1cnc2nc(N)nc(N)c2n1)c1ccc(C(=O)N[C@@H](CCC(=O)O)C(=O)O)cc1 [Oral MTX] |  | 1223.7 ng·h/mL | 247.2 ng/mL | 1752.0 ng·h/mL | 349.4 ng/mL | 1927.2 ng·h/mL | 440.4 ng/mL | 1987.8 ng·h/mL | 423.5 ng/mL
